In brackets after ≈: the same amount, converted by molar mass. Read-outs that look alike come from different tables or passages of the source.
Columns and labels:
Experiment in all cases: Bacterial susceptibility testing (MIC, broth microdilution)
Assay type in all cases: cell-based
[1] = test system: E. coli BW25113; conditions: Escherichia coli, no FBS, 35° C., 18-24 h
Protocol: (§1) Minimal inhibitory concentrations (MIC) were determined by the broth microdilution method in accordance with the Clinical and Laboratory Standards Institute (CLSI) guidelines. In brief, organism suspensions were adjusted to a 0.5 McFarland standard to yield a final inoculum between 3×10^5 and 7×10^5 colony-forming units (CFU)/mL. Drug dilutions and inocula were made in sterile, cation adjusted Mueller-Hinton Broth (Beckton Dickinson). An inoculum volume of 100 μL was added to wells containing 100 μL of broth with 2-fold serial dilutions of drug. All inoculated microdilution trays were incubated in ambient air at 35° C. for 18-24 h. […] Performance of the assay was monitored by the use of laboratory quality-control strains and levofloxacin, a compound with a defined MIC spectrum, in accordance with CLSI guidelines.

[2] = test system: S. aureus ATCC 29213; conditions: Staphylococcus aureus
Protocol: as §1

[3] = test system: P. aeruginosa 209
Protocol: as §1

[4] = test system: E. coli delta tolC; conditions: Escherichia coli, 24 h, read-out: MIC E. coli delta tolC
Protocol: as §1

[5] = test system: E. coli ATCC 25922; conditions: Escherichia coli
Protocol: as §1

[6] = test system: E. coli imp mutant; conditions: Escherichia coli, read-out: MIC E. coli imp mutant
Protocol: as §1

[7] = test system: P. aeruginosa 210 delta mexAB-OprM; conditions: Pseudomonas aeruginosa, read-out: MIC P. aeruginosa 210 delta mexAB-OprM
Protocol: as §1

[8] = ATCC29213, broth microdilution, 35° C., 18-24 h, read-out: MIC S. aureus ATCC 29213
[9] = Pseudomonas aeruginosa, 209, broth microdilution, 35° C., 18-24 h, read-out: MIC P. aeruginosa 209
[10] = ATCC25922, no FBS, broth microdilution, 35° C., 18-24 h, read-out: MIC E. coli ATCC 25922-no FBS
[11] = ATCC29213, read-out: MIC S. aureus ATCC 29213
[12] = Pseudomonas aeruginosa, 209, read-out: MIC P. aeruginosa 209
[13] = ATCC25922, read-out: MIC E. coli ATCC 25922-no FBS

| Structure (SMILES) | MIC [1] | MIC [2, 8] | MIC [3, 9] | MIC [4] | MIC [5, 10] | MIC [6] | MIC [7] | MIC [2, 11] | MIC [3, 12] | MIC [5, 13] |
| --- | --- | --- | --- | --- | --- | --- | --- | --- | --- | --- |
| CNC(=O)c1ccc(-c2ccc(NCc3oc(CNS(C)(=O)=O)cc(=O)c3O)cc2)cc1 [Compound 1, 4′-(((3-hydroxy-6-(methylsulfonamidomethyl)-1-oxo-4H-pyran-2-yl)methyl)amino)-N-methyl-[1,1′-biphenyl]-4-carboxamide] | > 32 mg/L | > 32 mg/L | > 32 mg/L | > 32 mg/L | > 32 mg/L | > 32 mg/L | > 32 mg/L | – | – | – |
| CS(=O)(=O)Cc1cc(=O)c(O)c(CNc2ccc(C#Cc3ccccc3)cc2)o1 [Compound 2, 2-((4-(2-phenylethynyl)phenylamino)methyl)-3-hydroxy-6-((methylsulfonyl)methyl)-4H-pyran-4-one] | > 32 mg/L | > 32 mg/L | > 32 mg/L | 8 to 32 mg/L (≈ 19.5 to 78.2 µM) | > 32 mg/L | > 32 mg/L | > 32 mg/L | – | – | – |
| CS(=O)(=O)Cc1cc(=O)c(O)c(CNc2ccc(C#CC#Cc3ccccc3)cc2)o1 [Compound 5, 2-((4-(4-phenylbuta-1,3-diynyl)phenylamino)methyl)-3-hydroxy-6-((methylsulfonyl)methyl)-4H-pyran-4-one] | 1 to 8 mg/L (≈ 2.31 to 18.5 µM) | – | – | 1 to 8 mg/L (≈ 2.31 to 18.5 µM) | – | 1 to 8 mg/L (≈ 2.31 to 18.5 µM) | > 32 mg/L | > 32 mg/L | > 32 mg/L | 8 to 32 mg/L (≈ 18.5 to 73.8 µM) |
| CNC(=O)C#CC#Cc1ccc(NCc2oc(CS(C)(=O)=O)cc(=O)c2O)cc1 [Compound 6, 5-(4-(((3-hydroxy-6-((methylsulfonyl)methyl)-4-oxo-4H-pyran-2-yl)methyl)amino)phenyl)-N-methylpenta-2,4-diynamide] | > 32 mg/L | – | – | > 32 mg/L | – | > 32 mg/L | > 32 mg/L | > 32 mg/L | > 32 mg/L | > 32 mg/L |
| CNC(=O)c1ccc(-c2ccc(CCc3oc(CS(C)(=O)=O)cc(=O)c3O)cc2)cc1 [Compound 7, 4′-(2-(3-hydroxy-6-((methylsulfonyl)methyl)-4-oxo-4H-pyran-2-yl)ethyl)-N-methyl-[1,1′-biphenyl]-4-carboxamide] | > 32 mg/L | – | – | > 32 mg/L | – | > 32 mg/L | > 32 mg/L | > 32 mg/L | > 32 mg/L | > 32 mg/L |
| CNC(=O)c1ccc(-c2ccc(OCc3oc(CS(C)(=O)=O)cc(=O)c3O)cc2)cc1 [Compound 8, 4′-((3-hydroxy-6-((methylsulfonyl)methyl)-4-oxo-4H-pyran-2-yl)methoxy)-N-methyl-[1,1′-biphenyl]-4-carboxamide] | > 32 mg/L | – | – | > 32 mg/L | – | > 32 mg/L | > 32 mg/L | > 32 mg/L | > 32 mg/L | > 32 mg/L |
| CS(=O)(=O)Cc1cc(=O)c(O)c(COc2ccc(C#Cc3ccccc3)cc2)o1 [Compound 9, 2-((4-(2-phenylethynyl)phenoxy)methyl)-3-hydroxy-6-((methylsulfonyl)methyl)-4H-pyran-4-one] | > 32 mg/L | – | – | 8 to 32 mg/L (≈ 19.5 to 78 µM) | – | 8 to 32 mg/L (≈ 19.5 to 78 µM) | > 32 mg/L | 8 to 32 mg/L (≈ 19.5 to 78 µM) | > 32 mg/L | > 32 mg/L |
| CS(=O)(=O)Cc1cc(=O)c(O)c(COc2ccc(C#CC#Cc3ccccc3)cc2)o1 [Compound 11] | – | – | – | – | – | – | – | 1 to 8 mg/L (≈ 2.3 to 18.4 µM) | > 32 mg/L | > 32 mg/L |
| O=C(NCc1cc(=O)c(O)co1)c1ccc(C#Cc2ccccc2)cc1 [Compound 27] | > 32 mg/L | > 32 mg/L | > 32 mg/L | > 32 mg/L | > 32 mg/L | > 32 mg/L | > 32 mg/L | – | – | – |
| O=C(NCc1cc(=O)c(O)co1)c1ccc(-c2ccccc2)cc1 [Compound 29] | > 32 mg/L | > 32 mg/L | > 32 mg/L | > 32 mg/L | > 32 mg/L | > 32 mg/L | > 32 mg/L | – | – | – |
| O=c1cc(CNc2ccc(C#CC#Cc3ccccc3)cc2)occ1O [Compound 30] | > 32 mg/L | 8 to 32 mg/L (≈ 23.4 to 93.7 µM) | > 32 mg/L | > 32 mg/L | > 32 mg/L | 1 to 8 mg/L (≈ 2.93 to 23.4 µM) | > 32 mg/L | – | – | – |
| COC(=O)c1ccc(C#CC#Cc2ccc(NCc3occc(=O)c3O)cc2)cc1 [Compound 31] | > 32 mg/L | > 32 mg/L | > 32 mg/L | 1 to 8 mg/L (≈ 2.5 to 20 µM) | > 32 mg/L | > 32 mg/L | > 32 mg/L | – | – | – |
| O=C(c1ccc(C#CC#Cc2ccc(NCc3occc(=O)c3O)cc2)cc1)N1CCCCC1 [Compound 33] | 1 to 8 mg/L (≈ 2.21 to 17.7 µM) | > 32 mg/L | > 32 mg/L | < 1 mg/L | 8 to 32 mg/L (≈ 17.7 to 70.7 µM) | 1 to 8 mg/L (≈ 2.21 to 17.7 µM) | > 32 mg/L | – | – | – |
| O=C(NC1CC1)c1ccc(C#CC#Cc2ccc(NCc3occc(=O)c3O)cc2)cc1 [Compound 34] | 1 to 8 mg/L (≈ 2.36 to 18.8 µM) | > 32 mg/L | > 32 mg/L | < 1 mg/L | 1 to 8 mg/L (≈ 2.36 to 18.8 µM) | 1 to 8 mg/L (≈ 2.36 to 18.8 µM) | > 32 mg/L | – | – | – |
| O=C(c1ccc(C#CC#Cc2ccc(NCc3occc(=O)c3O)cc2)cc1)N1C[C@H]2C[C@@H]1CO2 [Compound 36] | 1 to 8 mg/L (≈ 2.14 to 17.1 µM) | > 32 mg/L | > 32 mg/L | < 1 mg/L | 8 to 32 mg/L (≈ 17.1 to 68.6 µM) | 1 to 8 mg/L (≈ 2.14 to 17.1 µM) | > 32 mg/L | – | – | – |
| CN(C)[C@@H]1CCN(C(=O)c2ccc(C#CC#Cc3ccc(NCc4occc(=O)c4O)cc3)cc2)C1 [Compound 37] | 1 to 8 mg/L (≈ 2.08 to 16.6 µM) | > 32 mg/L | > 32 mg/L | < 1 mg/L | 1 to 8 mg/L (≈ 2.08 to 16.6 µM) | 1 to 8 mg/L (≈ 2.08 to 16.6 µM) | > 32 mg/L | – | – | – |
| CN1CC2CN(C(=O)c3ccc(C#CC#Cc4ccc(NCc5occc(=O)c5O)cc4)cc3)CC2C1 (stereo not drawn) [Compound 41] | 1 to 8 mg/L (≈ 2.03 to 16.2 µM) | > 32 mg/L | > 32 mg/L | < 1 mg/L | 1 to 8 mg/L (≈ 2.03 to 16.2 µM) | 1 to 8 mg/L (≈ 2.03 to 16.2 µM) | 8 to 32 mg/L (≈ 16.2 to 64.8 µM) | – | – | – |
| CN1CC2CN(C(=O)c3ccc(C#CC#Cc4ccc(NCc5occc(=O)c5O)cc4)cc3)C[C@@H]2C1 (stereo partly drawn) [Compound 42] | 1 to 8 mg/L (≈ 2.03 to 16.2 µM) | > 32 mg/L | > 32 mg/L | < 1 mg/L | 1 to 8 mg/L (≈ 2.03 to 16.2 µM) | 1 to 8 mg/L (≈ 2.03 to 16.2 µM) | 8 to 32 mg/L (≈ 16.2 to 64.8 µM) | – | – | – |
| O=C(c1ccc(C#CC#Cc2ccc(NCc3occc(=O)c3O)cc2)cc1)N1CCN2CCCC2C1 (stereo not drawn) [Compound 43] | 1 to 8 mg/L (≈ 2.03 to 16.2 µM) | > 32 mg/L | > 32 mg/L | < 1 mg/L | 1 to 8 mg/L (≈ 2.03 to 16.2 µM) | 1 to 8 mg/L (≈ 2.03 to 16.2 µM) | 8 to 32 mg/L (≈ 16.2 to 64.8 µM) | – | – | – |
| O=C(NCCO)c1ccc(C#CC#Cc2ccc(NCc3occc(=O)c3O)cc2)cc1 [Compound 44] | 1 to 8 mg/L (≈ 2.33 to 18.7 µM) | > 32 mg/L | > 32 mg/L | < 1 mg/L | 1 to 8 mg/L (≈ 2.33 to 18.7 µM) | < 1 mg/L | 8 to 32 mg/L (≈ 18.7 to 74.7 µM) | – | – | – |
| O=C(c1ccc(C#CC#Cc2ccc(NCc3occc(=O)c3O)cc2)cc1)N1CCC[C@H]1CO [Compound 50] | 1 to 8 mg/L (≈ 2.13 to 17.1 µM) | – | – | – | 1 to 8 mg/L (≈ 2.13 to 17.1 µM) | – | – | – | – | – |

Source: US10611747B2, “Pyrone based compounds for treating bacterial infections” (FORGE THERAPEUTICS, INC., priority 2015, dated 2020)
